Each compound was assayed against EGFR WT (Homo sapiens (Human), UniProt P00533) (assay: ErbB enzyme assay (CisBio HTRF-KinEASE-TK), EGFR WT). Settings: ATP at Km (25 μM), 1 h incubation.
Assay type: biochemical
In short: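 HTRF KinEASE-TK kinase reactions ran 1 h at ambient temperature with three-fold serial compound dilutions, then were quenched with Sa-XL665 and TK-Ab-Cryptate. After 1 h more, 655/620 nm time-resolved fluorescence gave percent of control; a 4-parameter logistic fit defined IC50 at 50 POC.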

Chain of EGFR WT (P00533 25-1210): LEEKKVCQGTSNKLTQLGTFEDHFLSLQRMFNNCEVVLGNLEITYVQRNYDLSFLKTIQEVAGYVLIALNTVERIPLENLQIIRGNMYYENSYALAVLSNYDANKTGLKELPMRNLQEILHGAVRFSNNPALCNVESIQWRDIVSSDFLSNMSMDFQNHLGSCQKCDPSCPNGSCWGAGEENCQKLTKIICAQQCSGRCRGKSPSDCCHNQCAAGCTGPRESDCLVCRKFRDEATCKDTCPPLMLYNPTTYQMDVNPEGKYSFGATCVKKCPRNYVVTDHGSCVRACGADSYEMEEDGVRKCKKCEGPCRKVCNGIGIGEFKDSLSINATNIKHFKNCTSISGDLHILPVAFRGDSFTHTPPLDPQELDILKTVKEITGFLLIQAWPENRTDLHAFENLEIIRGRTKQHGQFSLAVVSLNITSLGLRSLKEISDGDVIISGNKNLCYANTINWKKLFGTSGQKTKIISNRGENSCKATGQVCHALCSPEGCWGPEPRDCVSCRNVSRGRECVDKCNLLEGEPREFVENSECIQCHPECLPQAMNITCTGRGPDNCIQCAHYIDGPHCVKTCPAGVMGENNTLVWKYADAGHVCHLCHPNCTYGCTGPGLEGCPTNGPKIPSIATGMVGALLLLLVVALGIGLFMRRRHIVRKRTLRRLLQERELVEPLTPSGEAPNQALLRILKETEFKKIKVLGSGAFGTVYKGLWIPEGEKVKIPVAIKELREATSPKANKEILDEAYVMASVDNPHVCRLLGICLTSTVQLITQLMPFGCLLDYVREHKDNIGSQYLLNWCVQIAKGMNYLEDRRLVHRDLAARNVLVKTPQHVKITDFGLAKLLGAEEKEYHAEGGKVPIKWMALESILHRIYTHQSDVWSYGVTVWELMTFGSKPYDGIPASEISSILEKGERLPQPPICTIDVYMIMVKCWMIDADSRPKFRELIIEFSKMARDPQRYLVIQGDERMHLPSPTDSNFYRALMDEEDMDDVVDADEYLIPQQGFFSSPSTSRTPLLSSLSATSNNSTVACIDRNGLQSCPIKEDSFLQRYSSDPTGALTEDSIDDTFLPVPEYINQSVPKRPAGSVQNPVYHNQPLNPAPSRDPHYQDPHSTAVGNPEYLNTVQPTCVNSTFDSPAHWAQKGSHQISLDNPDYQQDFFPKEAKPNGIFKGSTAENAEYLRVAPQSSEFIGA

| SMILES | IC50 [nM] |
| --- | --- |
| C=CC(=O)N1CCN(c2ccc3ncnc(Nc4ccc(Oc5ccc6c(c5)nnn6C)c(C)c4)c3n2)C[C@H]1C [Compound 73, (R)-1-(2-methyl-4-(4-((3-methyl-4-((1-methyl-1H-benzo[d][1,2,3]triazol-5-yl)oxy)phenyl)amino)pyrido[3,2-d]pyrimidin-6-yl)piperazin-1-yl)prop-2-en-1-one] | 100 to 500 |
| Cc1cc(Nc2ncnc3ccc(N4CCN(C(=O)/C=C/C(F)F)[C@@H](C)C4)nc23)ccc1Oc1ccc2c(c1)nnn2C [Compound 369, (S,E)-4,4-difluoro-1-(2-methyl-4-(4-((3-methyl-4-((1-methyl-1H-benzo[d][1,2,3]triazol-5-yl)oxy)phenyl)amino)pyrido[3,2-d]pyrimidin-6-yl)piperazin-1-yl)but-2-en-1-one] | 100 to 500 |
| C=CC(=O)N1CCN(c2ccc3ncnc(Nc4ccc(Oc5ccc6c(c5)ncn6C(F)F)c(C)c4)c3n2)C[C@H]1C [Compound 340, (R)-1-(4-(4-((4-((1-(difluoromethyl)-1H-benzo[d]imidazol-5-yl)oxy)-3-methylphenyl)amino)pyrido[3,2-d]pyrimidin-6-yl)-2-methylpiperazin-1-yl)prop-2-en-1-one] | 50 to 100 |
| C=CC(=O)N[C@H]1CN(c2ccc3ncnc(Nc4ccc(Oc5ccc6c(c5)nnn6C)c(C)c4F)c3n2)CC[C@@H]1C (single isomer, unassigned) [Compound 346] | 100 to 500 |
| C=CC(=O)N1CCN(c2ccc3ncnc(Nc4ccc(Oc5ccc6c(c5)nnn6C(F)F)c(C)c4F)c3n2)CC1(C)C [Compound 322, 1-(4-(4-((4-((1-(difluoromethyl)-1H-benzo[d][1,2,3]triazol-5-yl)oxy)-2-fluoro-3-methylphenyl)amino)pyrido[3,2-d]pyrimidin-6-yl)-2,2-dimethylpiperazin-1-yl)prop-2-en-1-one] | 500 to 1000 |
| C=CC(=O)N1C2CCC1CN(c1ncc3ncnc(Nc4ccc(Oc5ccc6c(c5)nnn6C)c(C)c4)c3n1)C2 [Compound 47, 1-(3-(8-((3-methyl-4-((1-methyl-1H-benzo[d][1,2,3]triazol-5-yl)oxy)phenyl)amino)pyrimido[5,4-d]pyrimidin-2-yl)-3,8-diazabicyclo[3.2.1]octan-8-yl)prop-2-en-1-one] | 100 to 500 |
| C=CC(=O)N1CC(Oc2ncc3ncnc(Nc4ccc(Oc5ccc6c(c5)ncn6C)c(C)c4)c3n2)C1 [Compound 383, 1-(3-((8-((3-methyl-4-((1-methyl-1H-benzo[d]imidazol-5-yl)oxy)phenyl)amino)pyrimido[5,4-d]pyrimidin-2-yl)oxy)azetidin-1-yl)prop-2-en-1-one] | < 50 |
| C=CC(=O)N[C@@]1(C)CCN(c2ncc3ncnc(Nc4ccc(Oc5ccc6c(c5)nnn6C)c(C)c4)c3n2)C1 [Compound 145, (S)-N-(3-methyl-1-(8-((3-methyl-4-((1-methyl-1H-benzo[d][1,2,3]triazol-5-yl)oxy)phenyl)amino)pyrimido[5,4-d]pyrimidin-2-yl)pyrrolidin-3-yl)acrylamide] | 100 to 500 |
| C=CC(=O)N[C@@H]1CCN(c2ccc3ncnc(Nc4ccc(Oc5ccc6c(c5)nnn6C)c(C)c4F)c3n2)C[C@H]1F [Compound 287, N-((3R,4R)-3-fluoro-1-(4-((2-fluoro-3-methyl-4-((1-methyl-1H-benzo[d][1,2,3]triazol-5-yl)oxy)phenyl)amino)pyrido[3,2-d]pyrimidin-6-yl)piperidin-4-yl)acrylamide] | 100 to 500 |
| C=CC(=O)N1CCN(c2ncc3ncnc(Nc4ccc(Oc5cc(F)c6c(c5)ncn6C)c(C)c4F)c3n2)CC[C@@H]1C [Compound 181, (S)-1-(4-(8-((2-fluoro-4-((7-fluoro-1-methyl-1H-benzo[d]imidazol-5-yl)oxy)-3-methylphenyl)amino)pyrimido[5,4-d]pyrimidin-2-y1)-7-methyl-1,4-diazepan-1-yl)prop-2-en-1-one] | < 50 |

From patent publication US20250129078A1, “ERBB2 INHIBITORS” (Cogent Biosciences, Inc., priority 2023, published 2025)
